l = locked nucleic acid (LNA); d = 2'-deoxy (DNA)
System: PCSK9 mRNA
Test: Target knock down (PCSK9 mRNA levels) in PTEC-TERT1 cells
Format: cell-based, human
Conditions: normalized to PPIB
Method: For assessment of the target knock down (PCSK9 mRNA levels) total mRNA was extracted from the cells adding 100 μl of 1× RNA lysis mixture (QuantiGene® Sample Processing Kit, QS0101) directly into the wells according to the manufacturer's instructions. RNA lysis mixtures were kept at −80° C. until analysis. For gene expression analysis, 20 μl of lysates were mixed with an mRNA-capture magnetic beads sets (Panomics QuantiGene® Plex Set catalog #12697), incubated overnight, processed for branched DNA amplification and analyzed according to the manufacturer's instructions (Panomics QuantiGene® Plex Assay kit, QP1015). The PPIB probe was used as housekeeping gene for normalization. Average Fluoresence Intensity (FI) and standard deviation of 3 biological replicates were calculated and normalized on vehicle control. The results are shown in table 11, and represent the average of three identical treatments.

[1] = PTEC-TERT1, EGF 0 ng/ml in medium
[2] = PTEC-TERT1, EGF 10 ng/ml in medium

Substance | PCSK9 mRNA [1] | PCSK9 mRNA [2]
GCtgtgtgagcttGG (antisense GCTGTGTGAGCTTGG; sugars from the 5' end l2 d11 l2, backbone and methylation of C not given here) [Compound 4-1] | 6.84 % of saline | 1.47 % of saline
TGCtacaaaacCCA (antisense TGCTACAAAACCCA; sugars from the 5' end l3 d8 l3, backbone and methylation of C not given here) [Compound 3-1] | 2.28 % of saline | 1.46 % of saline

From patent publication US11105794B2, “In vitro nephrotoxicity screening assay” (Hoffmann-La Roche Inc., priority 2016, dated 2021)
